pIC50: −log10 of the molar value. Starred links: 1 amine or outer side, 2 acyl side, 3 side chain; linkers in the order of their positions; H or OH if unused. Positions of bridges follow the written chain, without caps; N, C: chain ends. Non-standard residues stand in square brackets, D forms with d. Residues, ends and D or L forms follow the SMILES beside them. Chains are numbered I, II in the order given. Actinocin(9to1) = Cc1c2oc3c(C)ccc(C(=O)[*:1])c3nc-2c(C(=O)[*:2])c(N)c1=O; NMeV = CN[C@H](C(=O)O)C(C)C; Sar = CNCC(=O)O
Columns and labels:
tubulin = assay: Cell-free tubulin polymerization assay in vitro; format: biochemical; conditions: 10 μM; control 19 mOD/min
Protocol: The purified tubulin was obtained commercially (Cytoskeleton Inc., Denver, CO, USA) and the polymerization assays were carried out according to the method described previously.[36] […] The resulting polymerization curves are representative of the three phases of microtubule polymerization, namely nucleation, growth and steady-state equilibrium. Paclitaxel and nocodazole were used in the assay as a known enhancer and inhibitor of tubulin polymerization, respectively. The ability of BPT to inhibit tubulin polymerization in vitro was determined according to the manufacturer's instructions. Briefly, tubulin protein (3 mg/ml) was polymerized in GTP buffer (80 mM PIPES, pH 6.9, 2 mM MgCl2, 0.5 mM EGTA, 10.2% glycerol and 1 mM GTP) in the presence of a range of BPT concentrations at 37 °C in a temperature-regulated Biotech spectrophotometer (Potton, Bedfordshire, UK). The absorbance (at 340 nm) kinetics of 61 cycles for each sample was studied and the readings were recorded at an interval of 1 min.

Cdk2-cyclin A = Cdk2-cyclin A (Homo sapiens, UniProt P24941); assay: In vitro kinase assay, Cdk2-cyclin A (in-house); format: biochemical
Protocol: (§1) The in vitro kinase assays for testing against Cdk4-cyclin D1, Cdk2-cyclin A, Cdk1-cyclin B1 and Cdk9-cyclin T1 were performed in-house. The methodology and results have been reported previously.[20], [30], [31], [32], [45] The kinase profiling for 58 representative kinases was carrried out commercially at Millipore Bioscience Division, Livingston, UK.

Cdk1-cyclin B1 = Cdk1-cyclin B1 (Homo sapiens, UniProt P06493); assay: In vitro kinase assay, Cdk1-cyclin B1 (in-house); format: biochemical; conditions: three independent experiments; read-out: IC50 (mean±S.D.), Cdk1-cyclin B1
Sequence of Cdk1-cyclin B1 (P06493 whole entry): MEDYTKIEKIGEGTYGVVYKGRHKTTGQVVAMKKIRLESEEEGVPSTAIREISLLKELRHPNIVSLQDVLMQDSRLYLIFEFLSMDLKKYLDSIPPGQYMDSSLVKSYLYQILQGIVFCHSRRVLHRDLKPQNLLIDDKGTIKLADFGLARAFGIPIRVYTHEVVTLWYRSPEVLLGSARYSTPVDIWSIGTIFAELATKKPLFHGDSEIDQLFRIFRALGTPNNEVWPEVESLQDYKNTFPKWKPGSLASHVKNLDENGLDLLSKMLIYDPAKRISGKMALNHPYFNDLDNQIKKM
Sequence of Cdk1-cyclin B1 (P14635 whole entry partner): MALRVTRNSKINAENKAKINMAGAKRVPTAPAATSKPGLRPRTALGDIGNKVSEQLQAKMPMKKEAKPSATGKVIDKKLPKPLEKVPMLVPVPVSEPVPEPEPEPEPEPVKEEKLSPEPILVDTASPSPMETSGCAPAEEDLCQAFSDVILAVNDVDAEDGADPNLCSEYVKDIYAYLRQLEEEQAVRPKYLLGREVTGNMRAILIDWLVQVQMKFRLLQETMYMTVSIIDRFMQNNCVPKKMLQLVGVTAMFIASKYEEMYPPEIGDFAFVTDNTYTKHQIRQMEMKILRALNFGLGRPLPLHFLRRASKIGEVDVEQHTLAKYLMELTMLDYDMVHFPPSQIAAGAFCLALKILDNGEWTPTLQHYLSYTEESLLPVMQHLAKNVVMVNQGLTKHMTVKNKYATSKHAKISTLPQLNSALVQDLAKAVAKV
Protocol: as §1

Cdk9-cyclin T1 = Cdk9-cyclin T1 (Homo sapiens, UniProt P50750); assay: In vitro kinase assay, Cdk9-cyclin T1 (in-house); format: biochemical; conditions: three independent experiments; read-out: IC50 (mean±S.D.), Cdk9-cyclin T1
Sequence of Cdk9-cyclin T1 (P50750 whole entry): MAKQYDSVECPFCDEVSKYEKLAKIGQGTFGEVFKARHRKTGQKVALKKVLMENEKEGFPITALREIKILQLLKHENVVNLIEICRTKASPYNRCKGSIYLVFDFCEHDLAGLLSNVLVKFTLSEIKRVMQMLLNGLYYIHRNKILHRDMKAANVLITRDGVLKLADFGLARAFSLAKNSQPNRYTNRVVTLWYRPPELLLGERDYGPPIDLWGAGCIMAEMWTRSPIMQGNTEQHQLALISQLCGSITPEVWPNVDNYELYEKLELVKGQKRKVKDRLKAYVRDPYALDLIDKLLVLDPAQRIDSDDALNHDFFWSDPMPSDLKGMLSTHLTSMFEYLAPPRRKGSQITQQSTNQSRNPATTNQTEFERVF
Sequence of Cdk9-cyclin T1 (O60563 whole entry partner): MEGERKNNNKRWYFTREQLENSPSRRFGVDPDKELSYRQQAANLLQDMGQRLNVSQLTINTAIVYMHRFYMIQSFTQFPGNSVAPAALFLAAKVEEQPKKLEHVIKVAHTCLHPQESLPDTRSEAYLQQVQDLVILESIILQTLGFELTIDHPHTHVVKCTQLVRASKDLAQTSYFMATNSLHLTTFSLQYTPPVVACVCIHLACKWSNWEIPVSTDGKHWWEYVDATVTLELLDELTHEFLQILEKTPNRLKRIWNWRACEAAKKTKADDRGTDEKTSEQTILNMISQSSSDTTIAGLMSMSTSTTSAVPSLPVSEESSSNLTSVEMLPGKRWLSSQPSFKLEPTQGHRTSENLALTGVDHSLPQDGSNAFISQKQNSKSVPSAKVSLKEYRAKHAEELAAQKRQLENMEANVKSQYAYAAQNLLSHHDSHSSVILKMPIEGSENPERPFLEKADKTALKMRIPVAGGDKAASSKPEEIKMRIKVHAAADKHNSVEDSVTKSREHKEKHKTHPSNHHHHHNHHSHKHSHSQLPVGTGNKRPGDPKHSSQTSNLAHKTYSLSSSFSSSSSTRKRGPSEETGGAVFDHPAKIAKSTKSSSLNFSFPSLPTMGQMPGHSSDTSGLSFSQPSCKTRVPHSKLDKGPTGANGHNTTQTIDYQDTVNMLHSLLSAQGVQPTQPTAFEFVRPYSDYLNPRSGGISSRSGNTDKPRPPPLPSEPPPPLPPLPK
Protocol: as §1

pBluescript plasmid DNA [1] = assay: EtBr displacement assay; format: binding; conditions: 1.3 μM EtBr
Protocol: The assays were performed in a 96-well plate with clear bottom (Costar, Washington, DC, USA). The assay involved the addition of 10 μl of 10 × concentrated stock solution of compounds (dissolved in DMSO and further diluted in EtBr displacement assay buffer) to 90 μl of reaction mixture containing 6 μg of purified pBlueScript DNA and 1.3 μM EtBr in EtBr displacement assay buffer with final pH 7.4. Equivalent amounts of DMSO were added to the vehicle controls. In addition to control samples (DNA+EtBr), test samples (DNA+EtBr+test compounds), blank 1 (EtBr only), blank 2 (DNA only), wells containing DNA and compound were also prepared to test any change in the background fluorescence readings. The reduction in relative fluorescence counts was monitored ([…]) and recorded after 1 min equilibration time. Fascaplysin and actinomycin D, which are known to intercalate d-s DNA, were used as standard compounds in assay. The mean control and test readings were corrected by subtracting blank readings. The percentage fluorescence in the test samples in reaction with control samples was calculated by using following formula: […]

pBluescript plasmid DNA [2] = assay: Topoisomerase I catalysed DNA relaxation or unwinding assay; format: biochemical
Protocol: For assay, 5 nM supercoiled pBluescript d-s plasmid DNA and 10 U of topoisomerase-I active enzyme were used in each reaction well. To ensure that the assay determines the DNA-intercalating property of compounds and not topoisomerase I inhibition, in a parallel experiment relaxed plasmid DNA was first prepared by treating with topo I enzyme for 30 min and then used as an initial substrate for the assay. DNA relaxation assays were performed in the presence or absence of compounds in 40 μl of DNA unwinding assay buffer. After 30 min incubation at 37 °C, reaction mixtures were treated with 3 μl of 250 mM EDTA and extracted with phenol/chloroform. The DNA was dissolved in tris-EDTA buffer, pH 8.0. The samples (20 μl) were treated with 2 μl of 2.5% SDS, mixed with 2.5 μl agarose gel loading buffer (10x) and subjected to electrophoresis on a 0.8% agarose gel without EtBr (separating the DNA in the presence of EtBr would convert the relaxed DNA into the supercoiled form). After the electrophoretic separation, DNA bands were stained with 1 μg/ml EtBr and visualized using a UV illuminator. The compounds were compared with fascaplysin, which is a known DNA-intercalating molecule. Camptothecin, which is a known topoisomerase- I inhibitor, was used to test the activity and inhibition of enzyme.

[3] = system: LS174T (colorectal carcinoma; p53+, pRb+); assay: Cell proliferation (MTT) assay, LS174T; format: cell-based; conditions: Homo sapiens, 48 h, read-out: IC50 cell growth inhibition, LS174T
Protocol: (§2) All 10 human cancer cell lines were maintained at 37 °C in 5% CO2 in RPMI-1640 medium, supplemented with 10% foetal calf serum and 100 μg/ml normocin. The 10 cancer cell lines used for screening were all obtained from ATCC (Manassas, VA, USA); they were the NSCLC (a form of cancer that is resistant to chemotherapy) lines: NCI-H460 (pRb^+, p53^+), A549 (pRb^+, p53^+), Calu-1 (pRb^+, p53-null), NCI-H1299 (pRb^+, p53-null), NCI-H358 (pRb-null, p53-null); the colon cancer line LS174T (pRb^+, p53^+); the prostate cancer line PC-3 (pRb^+, p53-null); the pancreatic cancer line MiaPaca (pRb^+, p53-mutant). The genotypes within brackets indicate the status of the tumour suppressor proteins pRb and p53. The mouse embryonic normal hepatic cell line (BNL CL2) and its SV40 large T-antigen-transformed counterpart cell line (BNL SV A.8) were also purchased from ATCC. The large T-antigen inactivates the tumour suppressor proteins p53 and pRb. The detailed procedure of cell proliferation (MTT) assay and IC50 determination was described previously.[32]

[4] = system: PC-3 (prostate; p53 null, pRb+); assay: Cell proliferation (MTT) assay, PC-3; format: cell-based; conditions: Homo sapiens, 48 h, read-out: IC50 cell growth inhibition, PC-3
Protocol: as §2

[5] = system: MiaPaCa (pancreatic; p53His273mut, pRb+); assay: Cell proliferation (MTT) assay, MiaPaCa; format: cell-based; conditions: Homo sapiens, MIA PaCa-2, 48 h, read-out: IC50 cell growth inhibition, MiaPaCa
Protocol: as §2

A549 (NSCLC; p53+, pRb+) = assay: Cell proliferation (MTT) assay, A549; format: cell-based; conditions: Homo sapiens, 48 h, read-out: IC50 cell growth inhibition, A549
Protocol: as §2

[6] = system: Calu-1 (NSCLC; p53 null, pRb+); assay: Cell proliferation (MTT) assay, Calu-1; format: cell-based, human; conditions: Homo sapiens, Calu-1; 48 h, MTT; read-out: IC50 cell growth inhibition, Calu-1
Protocol: as §2

Cdk4-cyclin D1 = Cdk4-cyclin D1 (Homo sapiens, UniProt P11802); design: method as in PMID 12941311, PMID 15165138; conditions: cited from earlier work
Sequence of Cdk4-cyclin D1 (P11802 whole entry): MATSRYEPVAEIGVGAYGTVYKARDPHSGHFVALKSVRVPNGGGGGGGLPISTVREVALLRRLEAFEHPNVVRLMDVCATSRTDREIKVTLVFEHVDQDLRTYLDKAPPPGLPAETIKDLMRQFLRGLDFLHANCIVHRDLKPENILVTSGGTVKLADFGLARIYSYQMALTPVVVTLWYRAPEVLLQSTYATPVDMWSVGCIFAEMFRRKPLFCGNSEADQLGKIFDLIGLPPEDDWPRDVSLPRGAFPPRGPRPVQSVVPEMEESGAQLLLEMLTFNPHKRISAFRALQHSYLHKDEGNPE
Sequence of Cdk4-cyclin D1 (P24385 whole entry partner): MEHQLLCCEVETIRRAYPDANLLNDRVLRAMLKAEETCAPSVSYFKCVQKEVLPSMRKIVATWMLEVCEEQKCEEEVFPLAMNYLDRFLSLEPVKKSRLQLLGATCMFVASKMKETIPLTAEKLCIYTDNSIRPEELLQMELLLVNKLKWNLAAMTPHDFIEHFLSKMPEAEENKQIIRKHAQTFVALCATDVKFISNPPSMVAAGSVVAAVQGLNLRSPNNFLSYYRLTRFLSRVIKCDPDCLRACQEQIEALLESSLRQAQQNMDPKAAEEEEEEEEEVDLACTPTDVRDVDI

CC(=O)O[C@H]1C(=O)[C@@]2(C)[C@H]([C@H](OC(=O)c3ccccc3)[C@]3(O)C[C@H](OC(=O)[C@H](O)[C@@H](NC(=O)c4ccccc4)c4ccccc4)C(C)=C1C3(C)C)[C@]1(OC(C)=O)CO[C@@H]1C[C@@H]2O [paclitaxel, reference compound]
Vmax of tubulin polymerization (tubulin): 61 mOD/min

O=C1c2ccccc2-[n+]2ccc3c([nH]c4ccccc43)c21 [Fascaplysin, fascaplysin, reference compound]
pIC50 (Cdk2-cyclin A): < 3.60
pIC50 (Cdk1-cyclin B1): < 3.60
pIC50 (Cdk9-cyclin T1): < 3.60
EtBr displacement from DNA (pBluescript plasmid DNA [1]; pH 7.4): Displaces EtBr at 1 μM
EtBr displacement from DNA (pBluescript plasmid DNA [1]; pH 7.4, listed as fascaplysin): readily dislodges the bound EtBr
state of relaxed (negatively supercoiled) plasmid DNA after treatment (pBluescript plasmid DNA [2]; relaxed pBluescript DNA as substrate, BPT up to 100 μM, fascaplysin 1 μM): does not remain intact
hindrance of topoisomerase-I catalysed DNA relaxation (pBluescript plasmid DNA [2]; supercoiled pBluescript DNA, fascaplysin 10 and 1 µM, BPT 10 and 100 µM): hinder topoisomerase-I catalysed DNA relaxation
pIC50 [3]: 6.06
pIC50 [4]: 6.04
pIC50 [5]: 6.06
pIC50 (A549 (NSCLC; p53+, pRb+)): 6.16
pIC50 [6]: 5.89
pIC50 (Cdk4-cyclin D1): ~6.46

Cc1c2oc3c(C)ccc(C(=O)N[C@@H]4C(=O)N[C@H](C(C)C)C(=O)N5CCC[C@H]5C(=O)N(C)CC(=O)N(C)[C@@H](C(C)C)C(=O)O[C@@H]4C)c3nc-2c(C(=O)N[C@@H]2C(=O)N[C@H](C(C)C)C(=O)N3CCC[C@H]3C(=O)N(C)CC(=O)N(C)[C@@H](C(C)C)C(=O)O[C@@H]2C)c(N)c1=O [actinomycin D, reference compound] (I: T[dV]P[Sar][NMeV] / II: T[dV]P[Sar][NMeV]; ester I:1-I:C, II:1-II:C; linker I:N-II:N via Actinocin(9to1))
EtBr displacement from DNA (pBluescript plasmid DNA [1]; pH 7.4): readily dislodges the bound EtBr

COC(=O)Nc1nc2ccc(C(=O)c3cccs3)cc2[nH]1 [Nocodazole, nocodazole, reference compound]
Vmax of tubulin polymerization (tubulin): 4.5 mOD/min
